Assays:
[1] = tested on: 4T1 murine breast cancer cells; assay: Ectopic 4T1 homografts in BALBc mice: tumor size and survival after TOL; format: in vivo, mouse; settings: paclitaxel 20 mg/kg i.p. post-inoculation day 5; TOL: digoxin 3 mg/kg x8 + 4x30 min PEF 18 V/m on 2 successive days; n=12; FIG. 7
Protocol: FIG. 4 illustrates the average size of 4T1 homographs seen before and after each single treatment with TOL in which the duration of each of four exposures to PEFs of 18 V/m varied from 5-60 minutes (n=15). […] Further increase in stimulation duration had less of an effect on tumor reduction. Optimum tumor reduction is observed when the mice are exposed to a PEF for 30 minutes, or a range of exceeding 15 minutes and less than 60 minutes.
FIG. 6 depicts in vivo validation of the therapeutic efficacy of pulsed electric fields (PEFs) inducing osmotic lysis in a breast cancer mouse model. Ectopic homografts of 4T1 murine breast cancer cells were established in female, immune competent BALBc mice (n=12). The “TOL” group was injected with digoxin (7 mg/kg) and then exposed to the PEFs generated by a ring device. […] Tumor size was measured daily, beginning on Day 0 (first day of treatment) and every other day after Day 3 until NIH humane endpoint criteria were met for euthanasia.
FIG. 7 depicts in vivo validation of the therapeutic efficacy of pulsed electric fields (PEFs) inducing osmotic lysis in comparison to paclitaxel in a breast cancer mouse model. […] Homografts were measured on post-inoculation day 6 (treatment day 0), and again on post-treatment days 1 and 2 and then every other day until the criteria for humane endpoint euthanasia was met. […]

[2] = tested on: voltage gated sodium channel (VGSC); assay: Immunohistochemical labeling of VGSC in 4T1 homografts; format: in vivo, mouse; settings: 1 and 2 days after treating with paclitaxel; FIG. 8
Excerpt: FIGS. 5A-5C depict the immunohistochemical labeling of voltage gated sodium channel (VGSC) in 4T1 homografts before (FIG. 5A) and after (FIG. 5B) a single 2-day treatment with TOL. Nuclei are counterstained with DRAQ5™ fluorescent probe. […] Low power calibration bar in FIG. 5B is 50 μm and the high power calibration bar in the inset is 25 μm. […] This observation may explain, in part the loss of TOL's efficacy that is observed after the first 2 days of treatment.
FIGS. 8A-8D depicts the immunohistochemical labeling of VGSC in 4T1 homografts before (FIG. 8A), 1 (FIG. 8B) and 2 days (FIG. 8C) after treating with paclitaxel. Nuclei are counterstained with DRAQ5. […] Low power calibration bar in FIG. 8B is 50 μm and the high power calibration bar in the inset in FIG. 8C is 25 μm. […] It is noted that there is a progressive reduction of VGSC labeling but not in the number of cells that express the highest levels of VGSC. […] The decrease in expression of VGSC is likely to contribute in the reduced efficacy of TOL when used concurrently with paclitaxel.

SMILES: CC(=O)O[C@H]1C(=O)[C@@]2(C)[C@H]([C@H](OC(=O)c3ccccc3)[C@]3(O)C[C@H](OC(=O)[C@H](O)[C@@H](NC(=O)c4ccccc4)c4ccccc4)C(C)=C1C3(C)C)[C@]1(OC(C)=O)CO[C@@H]1C[C@@H]2O [paclitaxel]
- time from inoculation to humane endpoint euthanasia (survival) [1]: no significant effect on survival over controls
- VGSC expression [2]: decreases significantly and progressively
